# Experimental data published in ChEMBL document CHEMBL1151096, “7-aminoalkyl-2-amino-1,2,3,4-tetrahydro-2-naphthoic acids as inhibitors of tryptophan uptake” (Bioorg Med Chem Lett, 1992).
# Test system: WiDr
# Assay: Compound was tested for inhibition of 14C-Tryptophan uptake in WiDr human adenocarcinoma cells and the effect was determined at 0-100 uM concentration
# Type: functional, cell-based
row,SMILES,Ki [µM]
1,Nc1ccc2c(c1)CC(N)(C(=O)O)CC2 (stereo not drawn),34
2,NC1(C(=O)O)CCc2ccc(N(CCCl)CCCl)cc2C1 (stereo not drawn),0.8
3,CN(C)c1ccc2c(c1)CC(N)(C(=O)O)CC2 (stereo not drawn),1.4
4,CCCN(CCC)c1ccc2c(c1)CC(N)(C(=O)O)CC2 (stereo not drawn),7.4
5,NC1(C(=O)O)CCc2ccccc2C1 (stereo not drawn),37
6,CCCNc1ccc2c(c1)CC(N)(C(=O)O)CC2 (stereo not drawn),1.7
7,CC(C)Nc1ccc2c(c1)CC(N)(C(=O)O)CC2 (stereo not drawn),0.6
8,NC1(C(=O)O)CCc2ccc(N(CCO)CCO)cc2C1 (stereo not drawn),1.4
